# Measured values as given in patent US20230096766A1, “AMINO ACID HAVING FUNCTIONAL GROUP CAPABLE OF INTERMOLECULAR HYDROGEN BONDING, PEPTIDE COMPOUND CONTAINING SAME AND METHOD FOR PRODUCTION THEREOF” (Chugai Seiyaku Kabushiki Kaisha, priority 2018, published 2023).
# *1 amine or outer side, *2 acyl side, *3 side chain or, on linkers, in order; H or OH if unused. Where a SMILES comes first, the peptide text is derived from it. Bridges are numbered along the chain shown (N, C = ends). [ ]: non-standard residue; d: D form. The star is where a group is joined. ξ: configuration not given here. Phe(3-OMe,4-CONHMs) = COc1cc(C[C@H](N)C(=O)O)ccc1C(=O)NS(C)(=O)=O; Phe(3-CONHMe,4-OMe) = CNC(=O)c1cc(C[C@H](N)C(=O)O)ccc1OC; Phe(3-OMe,4-CONHMe) = CNC(=O)c1ccc(C[C@H](N)C(=O)O)cc1OC; NMeAbu(4-morpholino) = CN[C@@H](CCN1CCOCC1)C(=O)O; NMePhe(3-Cl) = CN[C@@H](Cc1cccc(Cl)c1)C(=O)O; ξGln(SO2Me) = CS(=O)(=O)NC(=O)CCC(N)C(=O)O; Tyr(3-F) = N[C@@H](Cc1ccc(O)c(F)c1)C(=O)O; NMeW = CN[C@@H](Cc1c[nH]c2ccccc12)C(=O)O; NMehPhe = CN[C@@H](CCc1ccccc1)C(=O)O; X6 = O=C([C@H](CCCCO)N[*:1])[*:2]; NMeF = CN[C@@H](Cc1ccccc1)C(=O)O; NMeI = CC[C@H](C)[C@H](NC)C(=O)O; ξThr(3R) = C[C@@H](O)C(N)C(=O)O; NMeL = CN[C@@H](CC(C)C)C(=O)O; Butyl(3R-OH) = C[C@@H](O)CC*; NMeV = CN[C@H](C(=O)O)C(C)C; NMeAbu = CC[C@H](NC)C(=O)O; NMeA = CN[C@@H](C)C(=O)O; Piperidide = C1CCN(*)CC1; dAbu = CC[C@@H](N)C(=O)O; CH2CMe2OH = CC(C)(O)C*; NBuGly = CCCCNCC(=O)O; Isopentyl = CC(C)CC*; NPrGly = CCCNCC(=O)O; Ethyl(2-OH) = OCC*; Sar = CNCC(=O)O; tBu = CC(C)(C)*
# Assay: in vitro
# Conditions: human, Caco-2, Caco-2
row,SMILES,Papp [×10⁻⁶ cm/s]
1,CCCCN1CC(=O)N(C)[C@@H](CC(C)C)C(=O)N[C@@H](COC(C)(C)C)C(=O)N(C)[C@@H](Cc2ccccc2)C(=O)N(C)[C@@H](C(C)C)C(=O)N[C@H](C(=O)N2CCCCC2)CC(=O)N[C@H](CC(C)C)C(=O)N(C)[C@@H](Cc2ccccc2)C(=O)N[C@@H](CC(C)C)C(=O)N(C)[C@@H](CCN2CCOCC2)C(=O)N[C@@H]([C@@H](C)O)C1=O [pd452] ([dL][NMeF]L[NMeAbu(4-morpholino)]T[NBuGly][NMeL]S(tBu)[NMeF][NMeV]D-Piperidide; lactam N-11),1.3
2,CCCCN1CC(=O)N(C)[C@@H](C(C)C)C(=O)N[C@H](C(=O)N2CCCCC2)CC(=O)N(C)[C@@H](CC)C(=O)N[C@@H](CC(C)C)C(=O)N(C)[C@@H](CC(C)C)C(=O)N(C)[C@@H](Cc2ccccc2)C(=O)NC(CCC(=O)NS(C)(=O)=O)C(=O)N(C)[C@@H](Cc2ccccc2)C(=O)N(C)[C@@H](CC(C)C)C(=O)N[C@@H](CC(C)C)C1=O (stereo partly drawn) [pd69] ([NMeAbu]L[NMeL][NMeF][ξGln(SO2Me)][NMeF][NMeL]L[NBuGly][NMeV]D-Piperidide; lactam N-11),< 0.14

# Same assay, conditions: human, Caco-2, Caco-2 (cm/sec)
row,SMILES,Papp [×10⁻⁶ cm/s]
1,"CC[C@H](C)[C@H]1C(=O)N[C@@H]([C@@H](C)O)C(=O)N(C)CC(=O)N(C)[C@@H](CC)C(=O)N[C@H](C(=O)N2CCCCC2)CC(=O)N(C)[C@@H](CC(C)C)C(=O)N[C@@H](Cc2ccc(OC)c(C(=O)NC)c2)C(=O)N(C)[C@@H](CC(C)C)C(=O)N(C)[C@@H](Cc2ccccc2)C(=O)N[C@@H](CC(C)C)C(=O)N(C)[C@@H](CC(C)C)C(=O)N1C [AP39] ([NMeL][Phe(3-CONHMe,4-OMe)][NMeL][NMeF]L[NMeL][NMeI]T[Sar][NMeAbu]D-Piperidide; lactam N-11)",0.01
2,"CCCCN1CC(=O)N(C)[C@@H](CC(C)C)C(=O)N[C@@H](Cc2ccc(C(=O)NS(C)(=O)=O)c(OC)c2)C(=O)N(C)[C@@H](CC(C)C)C(=O)N(C)[C@@H](CC(C)C)C(=O)N[C@H](C(=O)N2CCCCC2)CC(=O)N[C@H](CC(C)C)C(=O)N(C)[C@@H](Cc2ccccc2)C(=O)N[C@@H](C(C)C)C(=O)N(C)[C@@H](CC(C)C)C(=O)N[C@@H]([C@@H](C)O)C1=O [AP136] ([dL][NMeF]V[NMeL]T[NBuGly][NMeL][Phe(3-OMe,4-CONHMs)][NMeL][NMeL]D-Piperidide; lactam N-11)",0.47
3,"CCCCN1CC(=O)N(C)[C@@H](CC(C)C)C(=O)N(C)[C@@H](CC(C)C)C(=O)N[C@@H](COC(C)(C)C)C(=O)N(C)[C@@H](CC(C)C)C(=O)N[C@H](C(=O)N2CCCCC2)CC(=O)N(C)CC(=O)N(C)[C@@H](Cc2cccc(Cl)c2)C(=O)N[C@@H](Cc2ccc(C(=O)NC)c(OC)c2)C(=O)N(C)[C@@H](CC(C)C)C(=O)N[C@@H]([C@@H](C)O)C1=O [AP33] ([Sar][NMePhe(3-Cl)][Phe(3-OMe,4-CONHMe)][NMeL]T[NBuGly][NMeL][NMeL]S(tBu)[NMeL]D-Piperidide; lactam N-11)",0.61
4,CC[C@H](C)[C@H]1C(=O)N[C@@H]([C@@H](C)O)C(=O)N(C)CC(=O)N(C)[C@@H](CC(C)C)C(=O)N[C@H](C(=O)N2CCCCC2)CC(=O)N(C)[C@@H](CC(C)C)C(=O)N[C@@H](CC(C)C)C(=O)N(C)[C@@H](CC(C)C)C(=O)N(C)[C@@H](Cc2c[nH]c3ccccc23)C(=O)N[C@@H](CC(C)C)C(=O)N(C)[C@@H](Cc2ccccc2)C(=O)N1C [pd111] ([NMeL]L[NMeL][NMeW]L[NMeF][NMeI]T[Sar][NMeL]D-Piperidide; lactam N-11),0.16
5,CC(C)C[C@@H]1NC(=O)[C@H](C(C)C)N(C)C(=O)C[C@@H](C(=O)N2CCCCC2)NC(=O)[C@H](CC(C)C)N(C)C(=O)CN(C)C(=O)[C@H]([C@@H](C)O)NC(=O)[C@H](CC(C)C)N(C)C(=O)[C@H](CCc2ccccc2)N(C)C(=O)[C@H](COCCO)NC(=O)[C@H](Cc2ccccc2)N(C)C(=O)[C@H](CC(C)C)N(C)C1=O [Compound A06] ([NMeV]L[NMeL][NMeF]S(Ethyl(2-OH))[NMehPhe][NMeL]T[Sar][NMeL]D-Piperidide; lactam N-11),0.53
6,CC[C@H](C)[C@@H]1NC(=O)[C@H](CC(C)C)N(C)C(=O)[C@@H](C)NC(=O)C[C@@H](C(=O)N2CCCCC2)NC(=O)[C@H](C)N(C)C(=O)[C@H](Cc2ccccc2)N(C)C(=O)[C@H](COC(C)(C)C)NC(=O)[C@H](CC(C)C)N(C)C(=O)CN(C)C(=O)[C@H](Cc2ccc(O)c(F)c2)NC(=O)[C@H](CC(C)C)N(C)C1=O [pd124] ([dA][NMeL]I[NMeL][Tyr(3-F)][Sar][NMeL]S(tBu)[NMeF][NMeA]D-Piperidide; lactam N-11),0.32
7,CCCN1CC(=O)N(C)[C@@H](CCc2ccccc2)C(=O)N(C)[C@@H](CC(C)C)C(=O)N[C@@H](COCCC(C)C)C(=O)N(C)[C@@H](CC(C)C)C(=O)N[C@H](C(=O)N2CCCCC2)CC(=O)N(C)CC(=O)N(C)[C@@H](Cc2cccc(Cl)c2)C(=O)N[C@@H](COCCO)C(=O)N(C)[C@@H](CC(C)C)C(=O)N[C@@H]([C@@H](C)O)C1=O [Compound A07] ([Sar][NMePhe(3-Cl)]S(Ethyl(2-OH))[NMeL]T[NPrGly][NMehPhe][NMeL]S(Isopentyl)[NMeL]D-Piperidide; lactam N-11),0.53
8,"CCCCN1CC(=O)N(C)[C@@H](CC(C)C)C(=O)N[C@@H](COC(C)(C)C)C(=O)N(C)[C@@H](Cc2ccccc2)C(=O)N(C)[C@@H](CC(C)C)C(=O)N[C@H](C(=O)N2CCCCC2)CC(=O)N[C@H](C(C)C)C(=O)N(C)[C@@H](C(C)C)C(=O)N[C@@H](Cc2ccc(OC)c(C(=O)NC)c2)C(=O)N(C)[C@@H](CC(C)C)C(=O)N[C@@H]([C@@H](C)O)C1=O [AP35] ([dV][NMeV][Phe(3-CONHMe,4-OMe)][NMeL]T[NBuGly][NMeL]S(tBu)[NMeF][NMeL]D-Piperidide; lactam N-11)",2
9,CCCN1CC(=O)N(C)[C@@H](Cc2cccc(Cl)c2)C(=O)N(C)[C@@H](CC(C)C)C(=O)N[C@@H](COCCO)C(=O)N(C)[C@@H](CC(C)C)C(=O)N[C@H](C(=O)N2CCCCC2)CC(=O)N(C)CC(=O)N(C)[C@@H](CCc2ccccc2)C(=O)N[C@@H]([C@@H](C)CC)C(=O)N(C)[C@@H](CC(C)C)C(=O)N[C@@H]([C@@H](C)O)C1=O [Compound A08] ([Sar][NMehPhe]I[NMeL]T[NPrGly][NMePhe(3-Cl)][NMeL]S(Ethyl(2-OH))[NMeL]D-Piperidide; lactam N-11),0.32
10,CCCN1CC(=O)N(C)[C@@H](CC(C)C)C(=O)N[C@@H](CCCCO)C(=O)N(C)[C@@H](Cc2cccc(Cl)c2)C(=O)N(C)[C@@H](CC(C)C)C(=O)N[C@H](C(=O)N2CCCCC2)CC(=O)N[C@H](CC)C(=O)N(C)[C@@H](Cc2ccccc2)C(=O)N[C@@H](CC(C)C)C(=O)N(C)[C@@H](CC(C)C)C(=O)N[C@@H]([C@@H](C)O)C1=O [Compound B10] ([dAbu][NMeF]L[NMeL]T[NPrGly][NMeL][X6][NMePhe(3-Cl)][NMeL]D-Piperidide; lactam N-11),0.25
11,CC(C)C[C@@H]1NC(=O)[C@H](Cc2ccccc2)N(C)C(=O)[C@@H](C(C)C)NC(=O)C[C@@H](C(=O)N2CCCCC2)NC(=O)[C@H](CC(C)C)N(C)C(=O)[C@H](Cc2cccc(Cl)c2)N(C)C(=O)[C@H](COCC(C)(C)O)NC(=O)[C@H](CC(C)C)N(C)C(=O)CN(C)C(=O)[C@H]([C@@H](C)O)NC(=O)[C@H](CC(C)C)N(C)C1=O [AP02] ([dV][NMeF]L[NMeL]T[Sar][NMeL]S(CH2CMe2OH)[NMePhe(3-Cl)][NMeL]D-Piperidide; lactam N-11),1.3
12,CC(C)C[C@@H]1NC(=O)[C@H](Cc2ccccc2)N(C)C(=O)[C@@H](C(C)C)NC(=O)C[C@@H](C(=O)N2CCCCC2)NC(=O)[C@H](CC(C)C)N(C)C(=O)[C@H](Cc2cccc(Cl)c2)N(C)C(=O)[C@H](COCC[C@@H](C)O)NC(=O)[C@H](CC(C)C)N(C)C(=O)CN(C)C(=O)[C@H]([C@@H](C)O)NC(=O)[C@H](CC(C)C)N(C)C1=O [AP109] ([dV][NMeF]L[NMeL]T[Sar][NMeL]S(Butyl(3R-OH))[NMePhe(3-Cl)][NMeL]D-Piperidide; lactam N-11),0.64

# Same assay, conditions: human, Caco-2, Caco-2 (cm/sec) Papp
row,SMILES,Papp [×10⁻⁶ cm/s]
1,CC(C)C[C@H]1C(=O)N[C@@H](COC(C)(C)C)C(=O)N[C@@H]([C@@H](C)O)C(=O)N(C)[C@@H](Cc2ccccc2)C(=O)N[C@H](C(=O)N2CCCCC2)CC(=O)N[C@@H](C)C(=O)N(C)[C@@H](Cc2ccccc2)C(=O)N(C)[C@@H](C)C(=O)N(C)[C@@H](Cc2ccccc2)C(=O)N(C)[C@@H](CC(C)C)C(=O)N[C@@H](Cc2ccccc2)C(=O)N1C [pd237] (A[NMeF][NMeA][NMeF][NMeL]F[NMeL]S(tBu)T[NMeF]D-Piperidide; lactam N-11),0.089
2,CC(C)C[C@@H]1NC(=O)[C@H](Cc2ccccc2)N(C)C(=O)C([C@@H](C)O)NC(=O)[C@H](Cc2ccccc2)N(C)C(=O)CN(C)C(=O)[C@H](Cc2ccccc2)NC(=O)[C@H](CC(C)C)N(C)C(=O)[C@H](CC(C)C)NC(=O)[C@H](Cc2ccccc2)N(C)C(=O)[C@H](C)N(C)C(=O)C[C@@H](C(=O)N2CCCCC2)NC1=O (stereo partly drawn) [pd231] ([NMeA][NMeF]L[NMeL]F[Sar][NMeF][ξThr(3R)][NMeF]LD-Piperidide; lactam N-11),0.21
3,CC[C@H](C)[C@@H]1NC(=O)[C@H](Cc2ccccc2)N(C)C(=O)[C@H](C)N(C)C(=O)C[C@@H](C(=O)N(C)[C@@H](Cc2ccccc2)C(=O)N(C)[C@@H](Cc2ccccc2)C(=O)N[C@@H](C)C(=O)N2CCCCC2)NC(=O)[C@H](CC(C)C)N(C)C(=O)[C@H](Cc2ccccc2)N(C)C(=O)[C@H]([C@@H](C)O)NC(=O)[C@H](CC(C)C)N(C)C(=O)[C@H](CC(C)C)N(C)C(=O)[C@H](C)N(C)C1=O [pd240] ([NMeA][NMeF]I[NMeA][NMeL][NMeL]T[NMeF][NMeL]D[NMeF][NMeF]A-Piperidide; lactam N-10),0.06

# Same assay, conditions: human, Caco-2, Caco-2 (membrane permeability)
row,SMILES,Papp [×10⁻⁶ cm/s]
1,CCCCN1CC(=O)N(C)[C@@H](CC(C)C)C(=O)N[C@@H](CC(C)C)C(=O)N(C)[C@@H](Cc2ccccc2)C(=O)N(C)[C@@H]([C@@H](C)CC)C(=O)N[C@H](C(=O)N2CCCCC2)CC(=O)N[C@H](CC(C)C)C(=O)N(C)[C@@H](Cc2ccccc2)C(=O)N[C@@H](CCC(=O)NC)C(=O)N(C)[C@@H](CC(C)C)C(=O)N[C@@H]([C@@H](C)O)C1=O [Compound J01] ([dL][NMeF]E(NHMe)[NMeL]T[NBuGly][NMeL]L[NMeF][NMeI]D-Piperidide; lactam N-11),0.062
